# Positions of bridges follow the written chain, without caps; N, C: chain ends. No end group written: not given here.
# How the values were obtained:
# L. lactis MK43 = experiment: Antibacterial activity assay (MIC), two-fold serial dilutions in liquid medium; assay type: cell-based; settings: for Minimum inhibitory concentration in the presence of NaCl: MHB supplemented with 0.9% NaCl; for Minimum Inhibitory Concentration: MHB, 0.1% BSA, 37 °C, 24 h, no visible growth
# Description: (§1) Antibacterial activity of recombinant bacteriocins against a number of Gram-positive and Gram-negative bacteria (Table S2) was determined by the method of two-fold serial dilutions in a liquid medium. Two-fold serial dilutions of bacteriocins were prepared in sterile 96-well flat-bottom polystyrene microplates (Eppendorf, Hamburg, Germany) (Cat. No. 0030730.011) in a volume of 50 µL of sterile 0.1% bovine serum albumin (BSA) (SERVA Electrophoresis GmbH, Heidelberg, Germany) to prevent non-specific sorption of peptides to the surface of the plate wells [23]. Mid-log phase bacterial cultures were diluted with the 2x Mueller-Hinton broth (MHB) (Sigma-Aldrich, St. Louis, MO, USA) to a final cell concentration of 10^6 colony forming units (CFU) per mL. To determine the activity of bacteriocins against Listeria and Enterococci, 3% tryptic soy broth (TSB) (Merck-Millipore, Burlington, MA, USA) was used instead of MHB. Aliquots of 50 μL of diluted bacterial suspensions were added to each well of the plate, which was then incubated at 37 °C and 950 rpm for 24 h using thermostatable plate shaker PST-60HL-4 (Biosan, Riga, Latvia). As a negative control, 50 µL of the sterile growth medium (2xMHB or 6% TSB) was added to the wells containing 50 µL of 0.1% BSA. The values of the minimum inhibitory concentrations (MIC) were determined as the minimum concentration of the peptide, at which there was no visible growth of bacterial culture. Incubation for 2 h with 20 µg/mL chromogenic substrate resazurin (Sigma-Aldrich, St. Louis, MO, USA) was used to detect viable bacterial cells if they were difficult to visually detect. To study the effect of inorganic salts on the antimicrobial activity of bacteriocins, antibacterial activity assay was carried out in MHB medium supplemented with 0.9% NaCl.
# L. monocytogenes EGD = assay type: cell-based, Listeria monocytogenes; settings: 24 h
# Description: as §1
# E. coli ML-35p = assay type: cell-based; settings: 24 h
# Description: as §1
# S. aureus 209P = assay type: cell-based; settings: 24 h
# Description: as §1
# E. coli SQ110 = assay type: cell-based; settings: SQ110, 24 h
# Description: as §1
# E. coli ATCC 25922 = assay type: cell-based; settings: ATCC 25922, 24 h
# Description: as §1
# L. lactis MK66 = assay type: cell-based; settings: MK66, 24 h
# Description: as §1
# A. baumannii XDR CI 2675 = assay type: cell-based; settings: XDR CI 2675, 24 h
# Description: as §1
# B. licheniformis B-511 = assay type: cell-based; settings: 24 h
# Description: as §1
# [1] = tested on: P. aeruginosa MDR CI 1995; assay type: cell-based; settings: MDR CI 1995, 24 h
# Description: as §1
# B. subtilis B-886 = assay type: cell-based; settings: B-886, 24 h
# Description: as §1
# M. phlei Ac-1221 = assay type: cell-based; settings: 24 h
# Description: as §1
# E. coli XDR CI 1057 = assay type: cell-based; settings: XDR CI 1057, 24 h
# Description: as §1
# M. luteus Ac-2229 = assay type: cell-based; settings: Ac-2229, 24 h
# Description: as §1
Sequence,Minimum inhibitory concentration in the presence of NaCl (L. lactis MK43),Minimum Inhibitory Concentration (L. lactis MK43),Minimum Inhibitory Concentration (L. monocytogenes EGD),Minimum Inhibitory Concentration (E. coli ML-35p),Minimum Inhibitory Concentration (S. aureus 209P),Minimum Inhibitory Concentration (E. coli SQ110),Minimum inhibitory concentration in the presence of NaCl (E. coli SQ110),Minimum Inhibitory Concentration (E. coli ATCC 25922),Minimum Inhibitory Concentration (L. lactis MK66),Minimum inhibitory concentration in the presence of NaCl (L. lactis MK66),Minimum Inhibitory Concentration (A. baumannii XDR CI 2675),Minimum Inhibitory Concentration (B. licheniformis B-511),Minimum inhibitory concentration in the presence of NaCl (B. licheniformis B-511),Minimum Inhibitory Concentration [1],Minimum Inhibitory Concentration (B. subtilis B-886),Minimum inhibitory concentration in the presence of NaCl (B. subtilis B-886),Minimum Inhibitory Concentration (M. phlei Ac-1221),Minimum Inhibitory Concentration (E. coli XDR CI 1057),Minimum Inhibitory Concentration (M. luteus Ac-2229),Minimum inhibitory concentration in the presence of NaCl (E. coli ML-35p)
"KTYYGNGVHSTKKSLWGKVRLKNVIPGTLSRKQSLPIKQDLKILLGWATGAFGKTFH [AcdA(dT,C11S,C31S)]",> 32 µM,4 µM,>32 µM,>64 µM,>32 µM,16 µM,> 32 µM,>64 µM,1 µM,> 32 µM,>32 µM,4 µM,> 32 µM,>32 µM,4 µM,> 32 µM,8 µM,>64 µM,32 µM,
KTYYGTNGVHCTKKSLWGKVRLKNVIPGTLCRKQSLPIKQDLKILLGWATGAFGKTFH (cysteines drawn unpaired) [AcdA (DTT reduced)],,2 µM,>32 µM,4 µM,16 µM,4 µM,,8 µM,1 µM,,8 µM,4 µM,,>32 µM,4 µM,,4 µM,16 µM,16 µM,
KTYVGNTGYHCTKKSLWGKVRLKNVIPGTLCRKQSLPIKQDLKILLGWATGAFGKTFH (disulfide 11-31) [AcdA(x4)],> 32 µM,4 µM,>32 µM,8 µM,16 µM,8 µM,32 µM,16 µM,2 µM,> 32 µM,4 µM,4 µM,> 32 µM,16 µM,8 µM,> 32 µM,4 µM,8 µM,8 µM,16 µM
HCTKKSLWGKVRLKNVIPGTLCRKQSLPIKQDLKILLGWATGAFGKTFH (disulfide 2-22) [AcdA(d9)],> 32 µM,8 µM,>32 µM,4 µM,16 µM,8 µM,32 µM,16 µM,2 µM,> 32 µM,4 µM,8 µM,> 32 µM,16 µM,8 µM,> 32 µM,4 µM,8 µM,16 µM,16 µM

# Reference: paper PMC9780942, “Antimicrobial Activity and Immunomodulatory Properties of Acidocin A, the Pediocin-like Bacteriocin with the Non-Canonical Structure” (Membranes, 2022)
